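Five compound concentrations were applied to cells in 96-well plates for 48 hours; endpoints were derived by simple linear interpolation of the resulting dose-response curve. GI50: concentration for 50% inhibition of growth.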 Active and inactive are the calls of the source. Cut-off read from the data, not from the text of the source: active = GI50 up to about 1.1 µM and inactive = higher.
Columns and labels:
Assay in all cases: inhibition of tumour cell growth, NCI panel, 48 h
SN12C = tested on: SN12C
786-0 = tested on: 786-0
NCI-H460 = tested on: NCI-H460
A498 = tested on: A498
NCI-H23 = tested on: NCI-H23
MDA-MB-435 = tested on: MDA-MB-435
IGROV-1 = tested on: IGROV-1
Hs-578T = tested on: Hs-578T
CCRF-CEM = tested on: CCRF-CEM
UACC-62 = tested on: UACC-62
T47D = tested on: T47D
EKVX = tested on: EKVX
PC-3 = tested on: PC-3
SK-MEL-5 = tested on: SK-MEL-5
SNB-19 = tested on: SNB-19
SR = tested on: SR
M14 = tested on: M14
ACHN = tested on: ACHN
MDA-N = tested on: MDA-N
SNB-75 = tested on: SNB-75
COLO 205 = tested on: COLO 205
HOP-92 = tested on: HOP-92
SK-OV-3 = tested on: SK-OV-3
SW-620 = tested on: SW-620
SK-MEL-2 = tested on: SK-MEL-2
NCI-H522 = tested on: NCI-H522
NCI/ADR-RES = tested on: NCI/ADR-RES
HT-29 = tested on: HT-29
NCI-H226 = tested on: NCI-H226
OVCAR-4 = tested on: OVCAR-4
DU-145 = tested on: DU-145
CAKI-1 = tested on: CAKI-1
MOLT-4 = tested on: MOLT-4
A549 = tested on: A549
SK-MEL-28 = tested on: SK-MEL-28
HCC 2998 = tested on: HCC 2998
BT-549 = tested on: BT-549
SF-295 = tested on: SF-295
HCT-15 = tested on: HCT-15
HOP-62 = tested on: HOP-62
MDA-MB-231 = tested on: MDA-MB-231
OVCAR-5 = tested on: OVCAR-5
U-251 = tested on: U-251
K562 = tested on: K562
UACC-257 = tested on: UACC-257
SF-268 = tested on: SF-268
KM12 = tested on: KM12
HCT-116 = tested on: HCT-116
OVCAR-3 = tested on: OVCAR-3
TK-10 = tested on: TK-10
RXF 393 = tested on: RXF 393
UO-31 = tested on: UO-31
HL-60 = tested on: HL-60
LOX IMVI = tested on: LOX IMVI
RPMI-8226 = tested on: RPMI-8226
OVCAR-8 = tested on: OVCAR-8
SF-539 = tested on: SF-539
Malme-3M = tested on: Malme-3M
MCF7 = tested on: MCF7

CC1(C)OC(=O)N(c2ccccc2)C12C=Cc1cc([N+](=O)[O-])ccc1O2 (stereo not drawn)
GI50 (SN12C): 56.5 µM (inactive)
GI50 (786-0): 77.3 µM (inactive)
GI50 (NCI-H460): 49.9 µM (inactive)
GI50 (A498): 32.4 µM (inactive)
GI50 (NCI-H23): 36.2 µM (inactive)
GI50 (MDA-MB-435): 20 µM (inactive)
GI50 (IGROV-1): 32.7 µM (inactive)
GI50 (Hs-578T): 19.5 µM (inactive)
GI50 (CCRF-CEM): 29.1 µM (inactive)
GI50 (UACC-62): 31.3 µM (inactive)
GI50 (T47D): 33 µM (inactive)
GI50 (EKVX): 23.8 µM (inactive)
GI50 (PC-3): 22.7 µM (inactive)
GI50 (SK-MEL-5): 36.4 µM (inactive)
GI50 (SNB-19): 35.5 µM (inactive)
GI50 (SR): 19.6 µM (inactive)
GI50 (M14): 11 µM (inactive)
GI50 (ACHN): 97.1 µM (inactive)
GI50 (MDA-N): 22.6 µM (inactive)
GI50 (SNB-75): 43.2 µM (inactive)
GI50 (COLO 205): 45.3 µM (inactive)
GI50 (HOP-92): 20.2 µM (inactive)
GI50 (SK-OV-3): 28.9 µM (inactive)
GI50 (SW-620): 65.6 µM (inactive)
GI50 (SK-MEL-2): 33.4 µM (inactive)
GI50 (NCI-H522): 25.8 µM (inactive)
GI50 (NCI/ADR-RES): 30.2 µM (inactive)
GI50 (HT-29): 35.5 µM (inactive)
GI50 (NCI-H226): 44 µM (inactive)
GI50 (OVCAR-4): 61.8 µM (inactive)
GI50 (DU-145): 29.4 µM (inactive)
GI50 (CAKI-1): 50.1 µM (inactive)
GI50 (MOLT-4): 21.7 µM (inactive)
GI50 (A549): 53.2 µM (inactive)
GI50 (SK-MEL-28): 83.8 µM (inactive)
GI50 (HCC 2998): 29.2 µM (inactive)
GI50 (BT-549): 51.6 µM (inactive)
GI50 (SF-295): 37.5 µM (inactive)
GI50 (HCT-15): 48.8 µM
GI50 (HOP-62): 32.1 µM (inactive)
GI50 (MDA-MB-231): 19.4 µM (inactive)
GI50 (OVCAR-5): 26.9 µM (inactive)
GI50 (U-251): 35.8 µM (inactive)
GI50 (K562): 29 µM (inactive)
GI50 (UACC-257): 23.5 µM (inactive)
GI50 (SF-268): 51.1 µM (inactive)
GI50 (KM12): 56.6 µM (inactive)
GI50 (HCT-116): 33.3 µM (inactive)
GI50 (OVCAR-3): 21.7 µM (inactive)
GI50 (TK-10): 39.4 µM (inactive)
GI50 (RXF 393): 60.3 µM (inactive)
GI50 (UO-31): 25.1 µM (inactive)
GI50 (HL-60): 20.1 µM (inactive)
GI50 (LOX IMVI): 48.2 µM (inactive)
GI50 (RPMI-8226): 48.5 µM (inactive)
GI50 (OVCAR-8): 51.6 µM (inactive)

CC(=O)OC/C=C(/CCl)CCC(Br)C(C)(C)Br.CC(=O)OC/C=C(\CCl)CCC(Br)C(C)(C)Br (stereo not drawn)
GI50 (SN12C): > 10 µM (inactive)
GI50 (786-0): > 10 µM (inactive)
GI50 (NCI-H460): > 10 µM (inactive)
GI50 (A498): > 10 µM (inactive)
GI50 (NCI-H23): > 10 µM (inactive)
GI50 (MDA-MB-435): > 10 µM (inactive)
GI50 (IGROV-1): > 10 µM (inactive)
GI50 (Hs-578T): > 10 µM (inactive)
GI50 (CCRF-CEM): > 10 µM (inactive)
GI50 (UACC-62): > 10 µM (inactive)
GI50 (T47D): > 10 µM (inactive)
GI50 (EKVX): > 10 µM (inactive)
GI50 (PC-3): > 10 µM (inactive)
GI50 (SK-MEL-5): > 10 µM (inactive)
GI50 (SNB-19): > 10 µM (inactive)
GI50 (M14): > 10 µM (inactive)
GI50 (ACHN): > 10 µM (inactive)
GI50 (MDA-N): > 10 µM (inactive)
GI50 (SNB-75): > 10 µM (inactive)
GI50 (COLO 205): > 10 µM (inactive)
GI50 (SK-OV-3): > 10 µM (inactive)
GI50 (SW-620): > 10 µM (inactive)
GI50 (SK-MEL-2): > 10 µM (inactive)
GI50 (NCI-H522): > 10 µM (inactive)
GI50 (NCI/ADR-RES): > 10 µM (inactive)
GI50 (HT-29): > 10 µM (inactive)
GI50 (NCI-H226): > 10 µM (inactive)
GI50 (OVCAR-4): > 10 µM (inactive)
GI50 (DU-145): > 10 µM (inactive)
GI50 (CAKI-1): > 10 µM (inactive)
GI50 (MOLT-4): > 10 µM (inactive)
GI50 (SF-539): > 10 µM (inactive)
GI50 (A549): > 10 µM (inactive)
GI50 (SK-MEL-28): > 10 µM (inactive)
GI50 (HCC 2998): > 10 µM (inactive)
GI50 (BT-549): > 10 µM (inactive)
GI50 (SF-295): > 10 µM (inactive)
GI50 (HCT-15): > 10 µM
GI50 (HOP-62): > 10 µM (inactive)
GI50 (MDA-MB-231): > 10 µM (inactive)
GI50 (OVCAR-5): > 10 µM (inactive)
GI50 (U-251): > 10 µM (inactive)
GI50 (Malme-3M): > 10 µM (inactive)
GI50 (K562): > 10 µM (inactive)
GI50 (UACC-257): > 10 µM (inactive)
GI50 (SF-268): > 10 µM (inactive)
GI50 (KM12): > 10 µM (inactive)
GI50 (HCT-116): > 10 µM (inactive)
GI50 (OVCAR-3): > 10 µM (inactive)
GI50 (TK-10): > 10 µM (inactive)
GI50 (RXF 393): > 10 µM (inactive)
GI50 (UO-31): > 10 µM (inactive)
GI50 (HL-60): > 10 µM (inactive)
GI50 (LOX IMVI): > 10 µM (inactive)
GI50 (RPMI-8226): > 10 µM (inactive)
GI50 (MCF7): > 10 µM (inactive)
GI50 (OVCAR-8): > 10 µM (inactive)
